The source made the active and inactive calls. The calls are words filed in the database; no cut-off is given here.
Tests used:
[1] = organism: Mus musculus; assay: Antinociceptive activity using mouse abdominal constriction test; inactive; format: functional, organism-based; details: Abdomen
[2] = system: Mus musculus; assay: Antinociceptive activity (100 mg/Kg) was determined using mouse tail flick test.; format: functional
[3] = system: Mus musculus; assay: Antinociceptive activity (10 mg/Kg) was determined using mouse abdominal constriction test.; format: functional, Abdomen
[4] = system: Mus musculus; assay: Antinociceptive activity (50 mg/Kg) was determined using mouse tail flick test.; format: functional
[5] = organism: Mus musculus; assay: Antinociceptive activity in mice, determined using abdominal constriction test.; format: functional; details: Abdomen
[6] = organism: Mus musculus; assay: Antinociceptive activity using mouse tail flick test; Inactive; format: functional, organism-based
[7] = system: Mus musculus; assay: Antinociceptive activity in mice following i.p. treatment, determined using tail flick test.; format: functional; details: ip
[8] = target: T1, Adrenergic receptor alpha-2 (Rattus norvegicus, UniProt P22086+P19328+P22909); assay: Inhibitory constant was measured on alpha-2 adrenergic receptor /uptake using [3H] clonidine as radioligand in rat brain cortex; format: tissue-based
T1 sequence (P22086 whole entry): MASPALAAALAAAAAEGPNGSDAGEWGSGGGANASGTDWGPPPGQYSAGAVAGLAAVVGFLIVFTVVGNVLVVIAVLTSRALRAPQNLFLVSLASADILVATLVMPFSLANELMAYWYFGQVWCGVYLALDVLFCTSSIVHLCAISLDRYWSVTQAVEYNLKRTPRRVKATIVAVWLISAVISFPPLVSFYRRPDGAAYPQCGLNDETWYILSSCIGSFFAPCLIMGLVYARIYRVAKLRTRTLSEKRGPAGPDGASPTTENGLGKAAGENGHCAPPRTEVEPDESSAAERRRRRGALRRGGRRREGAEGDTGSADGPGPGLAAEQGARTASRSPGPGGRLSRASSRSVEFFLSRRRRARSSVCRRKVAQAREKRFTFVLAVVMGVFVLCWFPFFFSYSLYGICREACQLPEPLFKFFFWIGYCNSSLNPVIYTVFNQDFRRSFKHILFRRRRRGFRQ
T1 sequence (P19328 whole entry): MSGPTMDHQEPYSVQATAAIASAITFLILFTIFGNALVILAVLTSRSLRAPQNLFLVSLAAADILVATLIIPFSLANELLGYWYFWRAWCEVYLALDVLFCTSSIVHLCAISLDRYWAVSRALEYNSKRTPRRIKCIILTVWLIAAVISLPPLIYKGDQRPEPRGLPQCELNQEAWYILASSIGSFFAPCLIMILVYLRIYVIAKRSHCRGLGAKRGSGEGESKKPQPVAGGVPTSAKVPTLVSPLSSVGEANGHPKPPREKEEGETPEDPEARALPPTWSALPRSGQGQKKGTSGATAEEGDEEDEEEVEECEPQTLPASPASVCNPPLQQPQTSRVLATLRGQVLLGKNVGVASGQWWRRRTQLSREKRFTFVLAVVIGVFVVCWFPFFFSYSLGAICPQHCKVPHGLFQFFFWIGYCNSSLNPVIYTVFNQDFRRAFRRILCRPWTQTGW
T1 sequence (P22909 whole entry): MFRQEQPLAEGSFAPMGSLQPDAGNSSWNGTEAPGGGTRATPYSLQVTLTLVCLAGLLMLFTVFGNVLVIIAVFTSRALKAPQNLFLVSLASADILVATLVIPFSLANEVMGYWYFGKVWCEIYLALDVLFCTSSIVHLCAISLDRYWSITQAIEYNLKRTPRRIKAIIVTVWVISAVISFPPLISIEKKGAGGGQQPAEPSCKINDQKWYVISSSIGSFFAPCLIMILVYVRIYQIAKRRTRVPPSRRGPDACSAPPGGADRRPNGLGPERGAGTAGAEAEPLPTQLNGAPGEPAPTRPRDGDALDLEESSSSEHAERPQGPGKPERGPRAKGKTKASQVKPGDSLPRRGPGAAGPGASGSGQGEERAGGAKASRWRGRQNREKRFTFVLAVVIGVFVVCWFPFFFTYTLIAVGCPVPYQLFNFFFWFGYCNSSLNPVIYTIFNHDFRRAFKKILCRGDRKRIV

[9] = target: Serotonin 1 (5-HT1) receptor (Rattus norvegicus) (UniProt P28564+P30940+P19327+P28565); assay: Inhibition constant (1 uM) was measured on 5-hydroxytryptamine 1 receptor/uptake using [3H]- serotonin as radioligand in rat brain cortex.; format: tissue-based
[10] = target: Serotonin 2 (5-HT2) receptor (Rattus norvegicus) (UniProt P30994+P08909+P14842); assay: Inhibitory constant (1 uM) was measured on 5-hydroxytryptamine 2 receptor/uptake using [3H]- ketanserin as radioligand in rat brain cortex.; format: tissue-based
Sequence of Serotonin 2 (5-HT2) receptor (Rattus norvegicus) (P08909 whole entry, looked up): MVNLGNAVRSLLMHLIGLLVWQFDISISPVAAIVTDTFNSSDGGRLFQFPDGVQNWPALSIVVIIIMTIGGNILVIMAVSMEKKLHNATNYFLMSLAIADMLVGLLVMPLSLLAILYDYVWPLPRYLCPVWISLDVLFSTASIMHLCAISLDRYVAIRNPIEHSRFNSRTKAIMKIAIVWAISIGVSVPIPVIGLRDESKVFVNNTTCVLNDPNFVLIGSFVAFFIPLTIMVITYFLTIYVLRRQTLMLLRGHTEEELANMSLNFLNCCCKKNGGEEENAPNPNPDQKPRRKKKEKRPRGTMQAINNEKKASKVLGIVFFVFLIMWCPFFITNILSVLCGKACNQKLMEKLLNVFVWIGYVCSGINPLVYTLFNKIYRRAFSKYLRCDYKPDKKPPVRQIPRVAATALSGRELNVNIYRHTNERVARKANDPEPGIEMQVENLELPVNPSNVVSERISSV
Sequence of Serotonin 2 (5-HT2) receptor (Rattus norvegicus) (P14842 whole entry, looked up): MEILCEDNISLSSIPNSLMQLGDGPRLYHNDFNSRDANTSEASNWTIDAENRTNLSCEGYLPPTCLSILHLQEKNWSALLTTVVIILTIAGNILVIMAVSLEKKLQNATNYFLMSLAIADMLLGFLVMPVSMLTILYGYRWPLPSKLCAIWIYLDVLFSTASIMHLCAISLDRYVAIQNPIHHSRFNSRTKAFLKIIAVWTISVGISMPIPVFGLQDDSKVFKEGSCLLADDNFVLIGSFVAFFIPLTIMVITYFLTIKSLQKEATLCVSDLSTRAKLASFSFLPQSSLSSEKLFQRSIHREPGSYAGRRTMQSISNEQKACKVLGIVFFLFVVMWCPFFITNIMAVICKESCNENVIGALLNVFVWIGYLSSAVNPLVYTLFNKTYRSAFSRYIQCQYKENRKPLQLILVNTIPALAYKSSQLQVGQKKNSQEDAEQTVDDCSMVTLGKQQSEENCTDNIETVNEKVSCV
Sequence of Serotonin 2 (5-HT2) receptor (Rattus norvegicus) (P30994 whole entry, looked up): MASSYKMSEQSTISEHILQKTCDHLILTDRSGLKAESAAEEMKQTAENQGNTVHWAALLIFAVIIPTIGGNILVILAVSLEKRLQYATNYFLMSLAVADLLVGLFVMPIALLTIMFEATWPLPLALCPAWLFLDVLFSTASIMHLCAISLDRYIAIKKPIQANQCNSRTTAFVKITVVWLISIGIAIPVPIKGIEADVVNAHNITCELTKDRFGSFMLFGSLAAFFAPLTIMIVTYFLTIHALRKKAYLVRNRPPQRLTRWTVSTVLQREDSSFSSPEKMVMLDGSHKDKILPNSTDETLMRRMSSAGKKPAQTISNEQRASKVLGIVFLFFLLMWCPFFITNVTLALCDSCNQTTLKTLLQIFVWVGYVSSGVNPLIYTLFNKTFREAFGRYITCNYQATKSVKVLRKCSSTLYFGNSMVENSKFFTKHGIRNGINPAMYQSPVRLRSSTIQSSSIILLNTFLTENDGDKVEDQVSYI

[11] = target: Adrenergic receptor alpha-1 (Rattus norvegicus) (UniProt P15823+P23944+P43140); assay: Inhibitory constant (1 uM) was measured on alpha-1 adrenergic receptor/uptake using [3H]- WB-4101 as radioligand in rat brain cortex.; format: tissue-based
[12] = target: D(2) dopamine receptor (Rattus norvegicus) (UniProt P61169); assay: Inhibitory constant (1 uM) was measured on dopamine receptor D2 using [3H]- spiperone as radioligand in rat brain striatum.; format: tissue-based
Sequence of D(2) dopamine receptor (Rattus norvegicus) (P61169 whole entry): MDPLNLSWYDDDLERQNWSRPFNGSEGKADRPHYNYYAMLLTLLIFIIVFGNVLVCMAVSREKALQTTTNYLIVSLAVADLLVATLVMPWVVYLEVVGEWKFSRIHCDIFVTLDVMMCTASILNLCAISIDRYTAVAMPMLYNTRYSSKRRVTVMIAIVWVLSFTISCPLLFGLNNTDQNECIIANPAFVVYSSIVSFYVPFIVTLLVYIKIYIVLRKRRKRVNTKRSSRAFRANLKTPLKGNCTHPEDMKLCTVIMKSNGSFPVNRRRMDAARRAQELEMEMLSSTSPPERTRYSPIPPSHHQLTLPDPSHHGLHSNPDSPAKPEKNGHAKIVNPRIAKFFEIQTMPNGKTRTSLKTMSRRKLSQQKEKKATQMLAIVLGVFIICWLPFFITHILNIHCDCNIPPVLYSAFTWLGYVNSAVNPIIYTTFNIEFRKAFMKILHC

[13] = target: GABA-A receptor; anion channel (Rattus norvegicus) (UniProt O09028+P15431+P18506+P18508+P19969+P20236+P23574+P23576+P28471+P28473+P30191+P62813+P63079+P63138+Q91ZM7+Q9ES14); assay: Inhibition of [3H]GABA binding to gamma-aminobutyric-acid A (GABA-A) receptor of rat brain cerebellum at 10 uM; format: tissue-based
[14] = target: Opioid receptor (Rattus norvegicus) (UniProt P33533+P34975+P33535); assay: Inhibitory constant (10 uM) was measured on opioid receptor/uptake using [3H]- naloxone as radioligand in rat whole brain.
Sequence of Opioid receptor (Rattus norvegicus) (P33533 whole entry, looked up): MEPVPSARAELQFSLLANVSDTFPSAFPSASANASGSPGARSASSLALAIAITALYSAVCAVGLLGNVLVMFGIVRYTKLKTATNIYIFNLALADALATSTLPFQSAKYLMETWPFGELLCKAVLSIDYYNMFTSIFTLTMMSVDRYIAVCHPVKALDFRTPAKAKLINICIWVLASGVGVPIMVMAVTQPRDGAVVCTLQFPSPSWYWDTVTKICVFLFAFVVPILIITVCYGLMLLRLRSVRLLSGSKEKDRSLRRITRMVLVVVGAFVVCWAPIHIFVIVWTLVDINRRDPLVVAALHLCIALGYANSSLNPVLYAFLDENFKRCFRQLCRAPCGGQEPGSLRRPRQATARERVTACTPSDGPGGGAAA
Sequence of Opioid receptor (Rattus norvegicus) (P33535 whole entry, looked up): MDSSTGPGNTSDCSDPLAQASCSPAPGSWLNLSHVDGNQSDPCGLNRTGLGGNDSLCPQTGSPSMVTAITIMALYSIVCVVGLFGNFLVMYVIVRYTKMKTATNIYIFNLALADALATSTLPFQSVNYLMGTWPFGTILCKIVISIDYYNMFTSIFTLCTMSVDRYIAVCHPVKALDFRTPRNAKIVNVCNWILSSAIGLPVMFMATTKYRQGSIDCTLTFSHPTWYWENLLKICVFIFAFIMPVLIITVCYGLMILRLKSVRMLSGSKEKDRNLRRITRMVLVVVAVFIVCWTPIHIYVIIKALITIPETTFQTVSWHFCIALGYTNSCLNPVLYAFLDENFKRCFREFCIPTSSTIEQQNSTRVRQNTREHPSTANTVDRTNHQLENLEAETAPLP
Sequence of Opioid receptor (Rattus norvegicus) (P34975 whole entry, looked up): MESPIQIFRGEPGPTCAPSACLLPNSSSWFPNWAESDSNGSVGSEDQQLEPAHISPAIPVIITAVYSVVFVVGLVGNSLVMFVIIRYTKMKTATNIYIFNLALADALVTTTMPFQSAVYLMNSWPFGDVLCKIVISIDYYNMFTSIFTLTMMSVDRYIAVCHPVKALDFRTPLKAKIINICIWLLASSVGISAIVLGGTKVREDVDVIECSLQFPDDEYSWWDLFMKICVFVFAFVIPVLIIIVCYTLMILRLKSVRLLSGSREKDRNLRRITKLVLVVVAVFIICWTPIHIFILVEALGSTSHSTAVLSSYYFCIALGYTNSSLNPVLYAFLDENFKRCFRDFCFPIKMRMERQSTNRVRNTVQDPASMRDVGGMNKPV

[15] = target: Cannabinoid receptor (Rattus norvegicus) (UniProt Q9QZN9+P20272); assay: Inhibitory constant (10 uM) was measured on cannabinoid receptor/uptake using [3H]CP-55940 as radioligand in rat brain cortex.; format: tissue-based
Sequence of Cannabinoid receptor (Rattus norvegicus) (P20272 whole entry, looked up): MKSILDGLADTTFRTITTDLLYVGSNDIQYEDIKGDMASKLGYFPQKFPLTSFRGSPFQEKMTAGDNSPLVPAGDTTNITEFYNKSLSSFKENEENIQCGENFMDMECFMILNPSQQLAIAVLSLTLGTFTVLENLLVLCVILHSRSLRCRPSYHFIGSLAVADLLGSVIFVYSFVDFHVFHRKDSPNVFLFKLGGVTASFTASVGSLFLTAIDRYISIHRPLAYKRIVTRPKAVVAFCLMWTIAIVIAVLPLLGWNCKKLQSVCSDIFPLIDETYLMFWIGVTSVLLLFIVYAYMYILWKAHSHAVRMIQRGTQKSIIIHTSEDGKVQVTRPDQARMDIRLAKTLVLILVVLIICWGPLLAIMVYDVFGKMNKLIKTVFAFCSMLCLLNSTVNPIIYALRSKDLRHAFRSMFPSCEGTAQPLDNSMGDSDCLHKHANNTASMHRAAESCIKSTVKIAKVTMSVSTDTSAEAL
Sequence of Cannabinoid receptor (Rattus norvegicus) (Q9QZN9 whole entry, looked up): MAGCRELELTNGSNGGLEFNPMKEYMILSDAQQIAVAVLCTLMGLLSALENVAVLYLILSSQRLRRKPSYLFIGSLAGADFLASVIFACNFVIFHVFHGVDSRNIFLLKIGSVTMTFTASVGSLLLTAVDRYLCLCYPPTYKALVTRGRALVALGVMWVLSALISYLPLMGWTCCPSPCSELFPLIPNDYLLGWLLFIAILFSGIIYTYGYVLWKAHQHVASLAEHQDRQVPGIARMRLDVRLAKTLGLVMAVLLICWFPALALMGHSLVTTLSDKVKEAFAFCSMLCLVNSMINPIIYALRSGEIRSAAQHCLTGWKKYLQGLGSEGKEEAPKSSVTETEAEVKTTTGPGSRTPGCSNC

[16] = target: Adrenergic receptor beta (Rattus norvegicus) (UniProt P18090+P10608+P26255); assay: Inhibitory constant (1 uM) was measured on beta adrenergic receptor/uptake using [3H]- dihydroalprenolol as radioligand in rat brain cortex.; format: tissue-based
[17] = target: T1, Adrenergic receptor alpha-2; assay: Inhibitory constant was measured on alpha-2 adrenergic receptor /uptake using [3H]- clonidine as radioligand in rat brain cortex.; format: tissue-based

For `Brc1cccc([C@H]2CC[C@H]3CCCCN32)c1.Cl`, the ED50 [1] was “inactive” and the Response [2] was 60%.
Compound `C1CCC([C@H]2CC[C@H]3CCCCN32)CC1.Cl` has a Response [3] of 50% and a Response [4] of 60%.
For `Cl.c1ccc(COc2ccc([C@H]3CC[C@H]4CCCCN43)cc2)cc1`, the ED50 [5] was 16.8 mg/kg and the Response [2] was 50%.
In the case of `Brc1ccc([C@H]2CC[C@H]3CCCCN32)cc1.Cl`, the ED50 [5] is reported as 18.8 mg/kg and the ED50 [6] is reported as “inactive”.
With `c1ccc(C2CCC3CCCN32)cc1` (stereo unspecified) the ED50 [5] was 5.7 mg/kg and the ED50 [7] was > 25 mg/kg.
`Brc1ccccc1[C@H]1CC[C@H]2CCCCN21.Cl` (racemic) showed a Ki [8] of 1120 nM.
For `Brc1ccccc1[C@H]1CC[C@H]2CCCCN21` (racemic), the Response [9] was 7%, the Response [10] was -18% and the Response [11] was 6%. The Response [12] was 0%, the Response [13] was 2% and the Response [14] was 17%. The Response [15] was 1% and the Response [16] was -3%.
`Brc1ccccc1[C@H]1CC[C@H]2CCCCN21.Cl` (stereo in doubt; (+)2a) was tested, and the Ki [17] was 1200 nM.
Work on `Brc1ccccc1[C@H]1CC[C@H]2CCCCN21` (stereo in doubt; (+)2a) yielded a Response [13] of 4%, a Response [15] of 6% and a Response [16] of -1%.
`Brc1ccccc1[C@H]1CC[C@H]2CCCCN21.Cl` (stereo in doubt; (-)2a) gave a Ki [17] of 2840 nM.
`Brc1ccccc1[C@H]1CC[C@H]2CCCCN21` (stereo in doubt; (-)2a) was tested, and the Response [13] was -2%, the Response [15] was 2% and the Response [16] was -5%.
`COc1ccc2c3c1O[C@H]1[C@@H](O)C=C[C@H]4[C@@H](C2)N(C)CC[C@@]341.COc1ccc2c3c1O[C@H]1[C@@H](O)C=C[C@H]4[C@@H](C2)N(C)CC[C@@]341.O.O=P(O)(O)O.O=P(O)(O)O` [CODEINE PHOSPHATE] showed an ED50 [5] of 11.1 mg/kg and an ED50 [7] of 30 mg/kg.
For `CC(C)Cc1ccc(C(C)C(=O)O)cc1` (stereo unspecified) [IBUPROFEN], the ED50 [5] was 15.7 mg/kg and the ED50 [6] was “inactive”.

— ChEMBL document CHEMBL1125504, “2-Substituted 1-azabicycloalkanes, a new class of non-opiate antinociceptive agents” (J Med Chem, 1992)
